Patent US9855257B2, “4-alkynyl imidazole derivative and medicine comprising same as active ingredient” (KAKEN PHARMACEUTICAL CO., LTD., priority 2013, dated 2018)
pIC50: −log10 of the molar value.

What was measured:
[1] = system: Carrageenin Induced Paw Edema in Rats; test: Anti-inflammatory effect on carrageenin induced paw edema in rats; assay type: in vivo, rat; settings: positive control, maximum efficacy at doses of 10˜30 mg/kg
Method: Test for Evaluating the Anti-Inflammatory Effect on Carrageenin Induced Paw Edema in Rats
The animals were Wistar male rats (7-week old). The paw volume of the right hind leg was measured with a paw volume meter (PLETHYSMOMETER, Ugo Basile Model 7141 or 7150). One hour after orally administering a test compound at a dose of 10 mg/5 mL/kg, a carrageenin treatment group was given a 1 w/v % carrageenin solution and a non-treatment group given distilled water, each administered subcutaneously to the footpad of the right hind leg at a dose of 0.1 mL. Four hours after the treatment with carrageenin (or distilled water), the paw volume was measured and the change in paw volume from the pre-treatment value was calculated. The anti-inflammatory effect of the test compound was confirmed using the percent paw edema suppression (see below) as an indicator. In the present experimental models, Cerecoxib (COX inhibitor already available on the market as an anti-inflammatory/analgesic agent) was used as a positive control.

rat EP4 receptor = target: T1, rat EP4 receptor (Rattus norvegicus, UniProt P43114); test: Rat EP4 receptor antagonistic action by the reporter assay method; assay type: cell-based; settings: COS-7 cells expressing rat EP4 receptor, CRE-LUC reporter, PGE2 1×10^−8 mol/L; geometric mean of three cases; read-out: Intensity of EP4 Receptor Antagonistic Activity IC50
T1 construct: its translated region was integrated into the expression vector pShooter (Invitrogen); expressed in transfected cells; host or cells: COS-7 cells (Cercopithecus aethiops kidney), transiently co-transfected with ratEP4-pShooter and a CRE-LUC reporter vector
T1 sequence (P43114 whole entry): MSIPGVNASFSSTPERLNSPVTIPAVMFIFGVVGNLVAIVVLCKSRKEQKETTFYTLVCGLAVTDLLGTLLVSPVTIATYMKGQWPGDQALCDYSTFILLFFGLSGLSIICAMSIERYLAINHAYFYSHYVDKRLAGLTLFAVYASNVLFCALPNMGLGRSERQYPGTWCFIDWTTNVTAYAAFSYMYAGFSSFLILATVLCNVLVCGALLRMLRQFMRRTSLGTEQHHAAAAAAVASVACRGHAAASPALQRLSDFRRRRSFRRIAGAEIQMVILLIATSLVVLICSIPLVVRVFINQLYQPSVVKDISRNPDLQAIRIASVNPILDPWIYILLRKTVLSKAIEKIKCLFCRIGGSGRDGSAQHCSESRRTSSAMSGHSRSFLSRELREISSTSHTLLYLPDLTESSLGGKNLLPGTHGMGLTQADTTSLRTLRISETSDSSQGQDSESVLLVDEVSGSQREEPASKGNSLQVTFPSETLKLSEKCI
Method: Test for Evaluating the Rat EP4 Receptor Antagonistic Action by the Reporter Assay Method
The first step was the cloning of the rat EP4 receptor. Total RNA was prepared from the kidney extracted from rats. With the total RNA used as a template, the rat EP4 receptor gene was cloned by RT-PCR and its translated region was integrated into the expression vector pShooter (Invitrogen) to prepare a rat EP4 receptor expressing vector (ratEP4-pShooter).
In the next step, rat EP4 receptor expressing cells for use in the reporter assay were prepared. COS-7 cells (derived from the kidney of Cercopithecus aethiops) were cultured in Dulbecco's Modified Eagle Medium (DMEM) (supplemented with 10% fetal bovine serum) in a 75-cm^2 cell culture flask. After the cells proliferated to a subconfluent state, the medium was removed and rinsed with phosphate buffered physiological saline (PBS). Trypsin-EDTA and a growth medium were used to recover the cells, which were then centrifuged. The supernatant was removed and the cells were suspended in DMEM. The cell suspension was seeded on a 96-well plate at a density of 2×10^4 cells/100 μL/well and cultured. The DMEM was mixed with Plus reagent, Lipofectamine 2000, the rat EP4 receptor expressing vector (ratEP4-pShooter) and a CRE-LUC reporter vector (CLONTECH) to prepare a transfection solution. Three hours after the seeding of the cells, 50 μL of the medium was removed and 50 μL/well of the transfection solution was added, followed by culture overnight. Negative control cells were prepared using pShooter in place of the receptor expressing vector. The cells were seeded on a 96-well plate for reporter assay and cultured.
The medium on the 96-well plate was removed and a test compound was added in an amount of 50 μL/well. After ca. 30-min culture, a PGE2 solution (2×10^−8 mol/L) was added in an amount of 50 μL/well (final concentration of PGE2: 1×10^−8 mol/L). As a PGE2-free control, there were provided wells to which a test medium had been added in an amount of 50 μL/well. About three hours later, the medium was removed and reporter assay was performed in accordance with the protocol accompanying the Steady-Glo Luciferase Assay System kit. Luminous intensity was measured with a microplate reader (Fusion-FPα, PerkinElmer) and EP4 receptor antagonistic activity (%) was determined by the following calculation formula: EP4 receptor antagonistic activity (%)=[1−(RLU(A,X)−RLU(0))/(RLU(PGE2)−RLU(0))]×100 RLU(A,X): Luminous intensity expressed in relative luminescence units (RLU) for the case where the test compound (A) X (mol/L) and PGE2 10^−8 mol/L were both added; RLU(PGE2): Luminous intensity for the case where only PGE2 10^−8 mol/L was added; RLU(0): Luminous intensity for the case where neither test compound nor PGE2 was added.
In addition, a dose-response curve was plotted from the EP4 receptor antagonistic activities at varying concentrations of each test compound and using the following approximation formula, the IC50 (the concentration of the test compound required to inhibit the PGE2 inducing activity by 50%) was calculated to determine the intensity of the compound's EP4 receptor antagonistic activity. The results are shown in Table 2: Y=Bottom+(Top−Bottom)/{1+10^(Log IC50−Log X)} Bottom: 0 Top: 100 X: Concentration of the test compound (mol/L) Y: EP4 receptor antagonistic activity (%)

[2] = system: Adjuvant Induced Arthritis in Rats; test: Anti-inflammatory and analgesic effects on adjuvant induced arthritis in rats; assay type: in vivo, rat; design: Percent Effectiveness: scale not given: direction of the effect not stated beside the values; settings: Lewis male rats, oral 0.3 mg/kg once a day, day 9 to day 17 after adjuvant; for Percent paw edema suppression: measured at day 18, means of 8˜10 cases; for Percent Effectiveness: pain threshold at day 18, 8˜10 cases
Method: Test for Evaluating Anti-Inflammatory and Analgesic Effects on Adjuvant Induced Arthritis in Rats
The animals were Lewis male rats (6-week old). An adjuvant solution (2 mg/mL) was administered intradermally to the footpad of the left hind leg of each animal at a dose of 0.1 mL to create an arthritis model. Paw volume was measured with a paw volume meter (PLETHYSMOMETER, Ugo Basile Model 7141). For evaluation of pain thresholds, a probe fitted to the sensor site of Pressure Application Measurement (PAM, Ugo Basile Model 38500) was used to turn the foot sole of a rat upward (dorsiflexion) until it gave an indication of pain or discomfort (vocalization) and the load being applied was measured. Eight days after the treatment with the adjuvant, the paw volume and pain threshold of each treated foot were measured and the animals were grouped for oral administration of each test compound (0.3 mg/kg) which was performed for nine days on a once-a-day schedule starting at day 9 and ending at day 17 after the treatment. At day 18 after the treatment, the paw volume and pain threshold of each […] foot were measured.
The anti-inflammatory effect of the test compound was confirmed using the percent paw edema suppression as an indicator. Percent paw edema suppression (%)=[(paw volume change in the control group−paw volume in each treatment group)/(paw volume change in the control group−paw volume change in the non-treatment group)]×100
As for the analgesic effect, the animals in the test compound group that had nociceptive thresholds greater than [(the mean nociceptive threshold of the control group)+2×standard deviation] were found “effective animals” and the percent effectiveness of each compound was calculated.

[3] = system: Carrageenin Induced Hyperalgesia in Rats; test: Analgesic effect on carrageenin induced hyperalgesia in rats; assay type: in vivo; settings: Rattus norvegicus, 2 h; SD male rats, oral 10 mg/5 mL/kg six hours after carrageenin, nociceptive threshold (Randall-Selitto) two hours after administration; 5˜7 cases; read-out: Percent Effectiveness
Method: Test for Evaluating Analgesic Effect on Carrageenin Induced Hyperalgesia in Rats
The animals were SD male rats (5-week old). Before treatment with carrageenin (or distilled water), the rats were measured for nociceptive thresholds in their right hind leg by the Randall-Selitto method and divided into a carrageenin treatment group and a non-treatment group to provide uniformity in nociceptive threshold. The carrageenin treatment group was given a 1 w/v % carrageenin solution and the non-treatment group given distilled water, each administered subcutaneously to the footpad of the right hind leg at a dose of 0.1 mL. Five hours after the treatment, the nociceptive thresholds were measured and the individuals with decreased thresholds were selected and grouped such that there was no inter-group difference in threshold. Six hours after the treatment, each test compound was orally administered at a dose of 10 mg/5 mL/kg. The control group was administered 0.5% methylcellulose. Two hours after the administration of the test compound (8 hours after the treatment), the nociceptive threshold was measured. The animals in the test compound group that had nociceptive thresholds greater than [(the mean nociceptive threshold of the control group)+2×standard deviation] were found “effective animals” and the percent effectiveness of each compound was calculated.

| SMILES | pIC50 (rat EP4 receptor) | other results |
| --- | --- | --- |
| Cc1ccc(-c2cc(C(F)(F)F)nn2-c2ccc(S(N)(=O)=O)cc2)cc1 [Cerecoxib, reference compound] |  | Percent paw edema suppression at the maximum efficacy [1]: 32˜37% |
| O=C(NCC1CCC(C(=O)O)CC1)c1c(C#CC2(O)CCCC2)nc(Cl)n1Cc1ccc(C(F)(F)F)cc1 (centres unmarked) [Compound 16] | 8.14 |  |
| CC(C)(O)C#Cc1nc(C2CC2)n(Cc2ccc(C(F)(F)F)cc2)c1C(=O)NCc1ccc(C(=O)O)cc1 [Compound 20, 4-({2-cyclopropyl-4-(3-hydroxy-3-methyl-1-butyn-1-yl)-1-[4-(trifluoromethyl)benzyl]-1H-imidazole-5-carboxamido}methyl)benzoic acid] | 7.19 |  |
| COC(C)(C)C#Cc1nc(Cl)n(Cc2ccc(C(F)(F)F)cc2)c1C(=O)NCc1ccc(C(=O)O)cc1 [Compound 41] | 8.08 |  |
| CC(C)(O)C#Cc1nc(Cl)n(CCOc2ccc(Cl)cc2)c1C(=O)NCc1ccc(C(=O)O)cc1 [Compound 44] | 7.76 | responders at 10 mg/kg [3]: 50% |
| COC(C)(C)C#Cc1nc(Cl)n(Cc2ccc(OC(F)(F)F)cc2)c1C(=O)N[C@@H](C)c1ccc(C(=O)O)cc1 [Compound 50] | 8.96 |  |
| COC(C)(C)C#Cc1nc(Cl)n(Cc2ccc(OC(F)F)cc2)c1C(=O)NCC1CCC(C(=O)O)CC1 (centres unmarked) [Compound 51] | 8.10 |  |
| COC(C)(C)C#Cc1nc(Cl)n(Cc2ccc(F)cc2)c1C(=O)NCc1ccc(C(=O)O)cc1 [Compound 56, 4-{[2-Chloro-1-(4-fluorobenzyl)-4-(3-methoxy-3-methyl-1-butyn-1-yl)-1H-imidazole-5-carboxamido]methyl}benzoic acid] | 7.30 |  |

The next lines start with results.

| pIC50 (rat EP4 receptor) | SMILES | other results |
| --- | --- | --- |
| 7.62 | CC(C)(O)C#Cc1nc(Cl)n(Cc2ccc(C(F)(F)F)cc2)c1C(=O)NC[C@H]1CC[C@H](C(=O)O)CC1 [Compound 1, trans-4-({2-Chloro-4-(3-hydroxy-3-methyl-1-butyn-1-yl)-1-[4-(trifluoromethyl)benzyl]-1H-imidazole-5-carboxamido}methyl)cyclohexanecarboxylic acid] | Percent paw edema suppression [2]: 54%; Percent Effectiveness [2]: 30% |
| 7.85 | CC(C)(O)C#Cc1nc(Cl)n(Cc2ccc(C(F)(F)F)cc2)c1C(=O)NCc1ccc(C(=O)O)cc1 [Compound 2, 4-({2-Chloro-4-(3-hydroxy-3-methyl-1-butyn-1-yl)-1-[4-(trifluoromethyl)benzyl]-1H-imidazole-5-carboxamido}methyl)benzoic acid] | Percent paw edema suppression [2]: 21%; Percent Effectiveness [2]: 38% |
| 8.52 | CC(C)(O)C#Cc1nc(Cl)n(Cc2ccc(C(F)(F)F)cc2)c1C(=O)NC1(c2ccc(C(=O)O)cc2)CC1 [Compound 4] |  |
| 7.58 | Cc1ccc(Cn2c(Cl)nc(C#CC(C)(C)O)c2C(=O)NC[C@H]2CC[C@H](C(=O)O)CC2)cc1 [Compound 21, trans-4-{[2-Chloro-4-(3-hydroxy-3-methyl-1-butyn-1-yl)-1-(4-methylbenzyl)-1H-imidazole-5-carboxamido]methyl}cyclohexanecarboxylic acid] | Percent paw edema suppression [2]: 53%; Percent Effectiveness [2]: 20% |
| 8.29 | COC(C)(C)C#Cc1nc(Cl)n(CCOc2ccc(Cl)cc2)c1C(=O)NCc1ccc(C(=O)O)cc1 [Compound 45] | responders at 10 mg/kg [3]: 50% |
| 8.10 | COC(C)(C)C#Cc1nc(Cl)n(Cc2ccc(OC(F)F)cc2)c1C(=O)NCc1ccc(C(=O)O)cc1 [Compound 52] |  |
| 7.79 | COC(C)(C)C#Cc1nc(Cl)n(Cc2cccc(OC(F)F)c2)c1C(=O)NCc1ccc(C(=O)O)cc1 [Compound 54] |  |
| 7.99 | COC(C)(C)C#Cc1nc(Cl)n(Cc2ccc(C(F)F)cc2)c1C(=O)NC[C@H]1CC[C@H](C(=O)O)CC1 [Compound 60, trans-4-({2-Chloro-1-[4-(difluoromethyl)benzyl]-4-(3-methoxy-3-methyl-1-butyn-1-yl)-1H-imidazole-5-carboxamido}methyl)cyclohexanecarboxylic acid] |  |
| 7.58 | CC(C)(C#Cc1nc(Cl)n(CCOc2ccc(Cl)cc2)c1C(=O)NC[C@H]1CC[C@H](C(=O)O)CC1)CO [Compound 61, Trans-4-({2-chloro-1-[2-(4-chlorophenoxy)ethyl]-4-(4-hydroxy-3,3-dimethyl-1-butyn-1-yl)-1H-imidazole-5-carboxamido}methyl)cyclohexanecarboxylic acid] |  |
| 7.58 | COC(C)(C)C#Cc1nc(C(F)F)n(CCOc2ccc(Cl)cc2)c1C(=O)NCc1ccc(C(=O)O)cc1 [Compound 64] |  |
| 8.68 | COC(C)(C)C#Cc1nc(Cl)n(Cc2ccc(C)cc2)c1C(=O)NC1(c2ccc(C(=O)O)cc2)CC1 [Compound 67, 4-(1-{2-Chloro-4-(3-methoxy-3-methyl-1-butyn-1-yl)-1-(4-methylbenzyl)-1H-imidazole-5-carboxamido}cyclopropyl)benzoic acid] | responders at 10 mg/kg [3]: 100% |
| 8.21 | Cc1ccc(Cn2c(Cl)nc(C#CC(C)(C)O)c2C(=O)NC2(c3ccc(C(=O)O)cc3)CC2)cc1 [Compound 68] |  |
